Key:
Assay in all cases: HTRF cAMP assay in HEK293T
Format in all cases: cell-based
Olfr748 = target: T1, Olfr748 (Mus musculus, UniProt E9Q9Z0)
T1 sequence (E9Q9Z0 1-307): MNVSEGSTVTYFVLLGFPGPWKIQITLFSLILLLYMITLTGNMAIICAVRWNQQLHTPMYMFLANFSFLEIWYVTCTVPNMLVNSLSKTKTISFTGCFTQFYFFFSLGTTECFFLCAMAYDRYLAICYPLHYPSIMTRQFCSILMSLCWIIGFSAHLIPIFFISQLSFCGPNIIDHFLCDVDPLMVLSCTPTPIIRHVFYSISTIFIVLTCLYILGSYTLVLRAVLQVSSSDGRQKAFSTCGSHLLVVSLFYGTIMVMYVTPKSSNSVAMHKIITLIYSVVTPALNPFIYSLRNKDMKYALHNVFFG

Olfr739 [1] = target: T2, Olfr739 (Mus musculus, UniProt E9Q1P0)
T2 sequence (E9Q1P0 1-309): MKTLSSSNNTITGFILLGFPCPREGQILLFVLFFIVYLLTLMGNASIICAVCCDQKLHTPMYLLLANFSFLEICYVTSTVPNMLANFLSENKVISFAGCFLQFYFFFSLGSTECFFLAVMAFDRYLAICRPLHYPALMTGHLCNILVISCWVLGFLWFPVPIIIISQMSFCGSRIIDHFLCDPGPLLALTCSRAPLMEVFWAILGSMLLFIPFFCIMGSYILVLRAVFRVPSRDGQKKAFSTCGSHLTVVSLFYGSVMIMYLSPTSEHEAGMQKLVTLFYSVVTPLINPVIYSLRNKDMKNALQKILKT

Olfr743 = target: T3, Olfr743 (Mus musculus, UniProt L7N1Y2)
T3 sequence (L7N1Y2 1-311): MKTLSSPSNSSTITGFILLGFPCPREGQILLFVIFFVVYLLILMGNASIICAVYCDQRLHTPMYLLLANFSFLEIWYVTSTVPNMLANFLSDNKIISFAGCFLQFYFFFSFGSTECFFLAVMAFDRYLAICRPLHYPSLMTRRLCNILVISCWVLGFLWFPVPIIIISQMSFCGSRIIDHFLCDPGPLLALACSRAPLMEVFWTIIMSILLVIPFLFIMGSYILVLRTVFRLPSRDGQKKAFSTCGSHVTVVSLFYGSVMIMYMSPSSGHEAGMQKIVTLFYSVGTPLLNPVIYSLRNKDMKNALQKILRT

Olfr739 [2] = target: T2, Olfr739; conditions: partial agonist; range printed for four receptors together

| EC50 (Olfr748) | EC50 (Olfr739 [1]) | EC50 (Olfr743) | % of the maximum indole response (Olfr739 [2]) | SMILES |
| --- | --- | --- | --- | --- |
| 81 µM | 32 µM | 0.08 µM | – | c1ccc2[nH]ccc2c1 [compound 37, indole] |
| – | – | – | 71-75% | COc1ccc2ccccc2c1 [compound 35, 2-methoxynaphthalene] |
